What is called CLint scaled is the capacity of the preparation to metabolise the compound, expressed as a volume cleared per time. A word on the AUC(0-t): it is exposure summed from dosing to a finite time, without extrapolation to infinity. By Cmax is commonly meant the maximum level reached in the sampled fluid or tissue. Usually Tmax stands for the time from dosing to the highest level. For orientation: IC50 means the concentration that gives 50% inhibition.

Each structure is given as a SMILES string. Where a name gives a salt, the structure may show the parent alone. A value given as a limit tells only on which side of the number the result lay.

Three compounds from US20230094146A1, “DEUTERATED THIENOPYRIDINE COMPOUND” (MEDSHINE DISCOVERY INC., priority 2020, published 2023) can be followed below.

The nature of data set [1]: Metabolic stability of liver microsomes in vitro. Particulars: Monkey liver microsomes 0.5 mg/mL, compound 1 μM. The data set is classed as in vitro ADME, cynomolgus monkey. On the procedure:
(§1) SD rat, mouse, beagle, cynomolgus monkey and human microsomes were purchased from Corning, Xenotech or BioIVT and stored in a −80° C. freezer.
(§2) 1.2 Nicotinamide adenine dinucleotide phosphate, reduced (NADPH), supplier: Chem-impex international, catalog number: 00616.
(§3) 1.3 Control compounds: testosterone, diclofenac, propafenone.
(§4) Stock solution: 10 mM DMSO solution.
(§5) Working concentration preparation: 100% acetonitrile diluted to 100 μM (organic phase content: 99% ACN, 1% DMSO).
(§6) Prepare two 96-well incubation plates, which were named T60 incubation plate and NCF60 incubation plate, respectively.
(§7) 445 μL of microsomal working solution (liver microsomal protein concentration of 0.56 mg/mL) was added to the T60 incubation plate and NCF60 incubation plate, respectively, and then the above incubation plates were preincubated in a 37° C. water bath for about 10 minutes.
(§8) After the preincubation, 5 μL of test substance or working solution of control compound were added to the T60 incubation plate and NCF60 incubation plate, respectively, and mixed well. The reaction was initiated by adding 50 μL of potassium phosphate buffer to each well of the NCF60 incubation plate; 180 μL of termination solution (acetonitrile solution containing 200 ng/mL tolbutamide and 200 ng/mL labetalol) and 6 μL of NADPH regeneration system working solution were added to the TO termination plate, and 54 μL of sample was removed from the T60 incubation plate to the TO termination plate (TO sample generation). The reaction was initiated by adding 44 μL NADPH regeneration system working solution to each well of the T60 incubation plate. 54 μL of microsomal working solution, 6 μL of NADPH regeneration system working solution and 180 μL of termination solution were added only to the blank plate. Therefore, in the samples of the test or control compounds, the final reaction concentration of compound, testosterone, diclofenac and propafenone was 1 μM, the concentration of liver microsomes was 0.5 mg/mL, and the final concentration of DMSO and acetonitrile in the reaction system were 0.01% (v/v) and 0.99% (v/v), respectively.
(§9) After incubation for an appropriate time (e.g. 5, 10, 20, 30 and 60 minutes), 180 μL of termination solution (acetonitrile solution containing 200 ng/mL tolbutamide and 200 ng/mL labetalol) was added to the sample well of each termination plate, respectively, and then 60 μL of sample was removed from the T60 incubation plate to terminate the reaction.
(§10) All sample plates were shaken well and centrifuged at 3220×g for 20 minutes, then 80 μL of supernatant per well was diluted into 240 μL of purified water for liquid chromatography tandem mass spectrometry analysis.
(§11) All samples were injected for analysis.
(In general: Microsomes from liver hold many membrane-bound enzymes, among them those of drug oxidation.)

Data set [2] in a line: Metabolic stability of liver microsomes in vitro. The data set is classed as in vitro ADME, beagle. Conditions: Dog liver microsomes 0.5 mg/mL, compound 1 μM; for CLint scaled at 1 μM: beagle. The method, then: as §1, §2, §3, §4, §5, §6, §7, §8, §9, §10, §11
A short description of data set [3]: Metabolic stability of liver microsomes in vitro. The data set is classed as in vitro ADME. Particulars: compound 1 μM. On the procedure: as §1, §2, §3, §4, §5, §6, §7, §8, §9, §10, §11
The nature of data set [4]: Metabolic stability of liver microsomes in vitro. The data set is classed as in vitro ADME, SD rat. Conditions: Rat liver microsomes 0.5 mg/mL, compound 1 μM; for CLint scaled at 1 μM: Sprague-Dawley. The method, then:
as §1, §2, §3, §4, §5, §6, §7, §8, §9, §10, §11

The nature of data set [5]: Pharmacokinetic evaluation in rats after oral administration. In kind it is in vivo. Conditions: Sprague-Dawley, plasma, 5 mg/kg, SD rat (male), 5 mpk. On the procedure: Testing the pharmacokinetic properties of the compounds of the present disclosure in rats.
The pharmacokinetic characteristics of the compounds in rodents after oral administration were tested by standard protocols. In the experiment, the candidate compounds were formulated into a clarified solution and given to rats for oral administration. The vehicle was 10% NMP/40% PEG400/[…]. Whole blood samples were collected within 24 hours (0.0833, 0.25, 0.5, 1, 2, 4, 6, 8, 24 h), and all blood samples were added to the plastic centrifuge tubes pre-labeled with 0.5 M K2-EDTA anticoagulant.

Data set [6] has as its target T1, VEGFR2 (Homo sapiens, UniProt P35968).
T1 construct: purchased Reaction Biology Corp
In words: 33P isotope-labeled kinase activity assay (Reaction Biology Corp). Conditions: 33P-ATP at Km concentration. The data set is classed as biochemical. The method, then:
(§12) The ^33P isotope-labeled kinase activity assay (Reaction Biology Corp) was used to determine the IC50 value to evaluate the inhibitory ability of the test compounds to Axl, c-Kit, Mer, DDR2, VEGFR1, VEGFR2, VEGFR3, TrkA, and FLT3.
(§13) Buffer conditions: 20 mM hydroxyethylpiperazine […] (Hepes) (pH 7.5), 10 mM MgCl2, 1 mM ethylene glycol bisaminoethyl ether tetraacetic acid (EGTA), 0.02% polyoxyethylene dodecane Ether (Brij35), 0.02 mg/ml BSA, 0.1 mM Na3VO4, 2 mM dithiothreitol (DTT), 1% DMSO.
(§14) Compound Treatment: Test compounds were dissolved in 100% DMSO and diluted serially to a specific concentration with DMSO by Integra Viaflo Assist.
(§15) Test procedure: The substrate was dissolved in freshly prepared buffer, the tested kinase was added and gently mixed well. The DMSO solution containing the test compound was added to the above well mixed reaction solution using acoustic technique (Echo 550) and incubated at room temperature for […]. The compound concentrations in the reaction solution were 3 μM, 1 μM, 0.333 μM, 0.111 μM, 0.0370 μM, 0.0123 μM, 4.12 nM, 1.37 nM, 0.457 nM, 0.152 nM. After 15 minutes of incubation, ^33P-ATP (activity 0.01 μCi/μL, Km concentration) was added to start the reaction. The reaction was carried out at room temperature for 120 minutes, then radioactivity was detected by filter binding method. The kinase activity data were expressed by comparison between the kinase activity containing the test compound and the kinase activity of the blank group (containing DMSO only), and the IC50 values were obtained by curve fitting using Prism4 software (GraphPad), and the experimental results are shown in Table 1.

Data set [7] addresses T2, VEGFR1 (Homo sapiens, UniProt P17948).
T2 construct: purchased Reaction Biology Corp
The data set is described as above. The data set is classed as biochemical. Conditions: 33P-ATP at Km concentration. On the procedure:
as §12, §13, §14, §15

In data set [8] the target is T3, DDR2 (Homo sapiens, UniProt Q16832).
T3 construct: purchased Reaction Biology Corp
T3 sequence (Q16832 22-855): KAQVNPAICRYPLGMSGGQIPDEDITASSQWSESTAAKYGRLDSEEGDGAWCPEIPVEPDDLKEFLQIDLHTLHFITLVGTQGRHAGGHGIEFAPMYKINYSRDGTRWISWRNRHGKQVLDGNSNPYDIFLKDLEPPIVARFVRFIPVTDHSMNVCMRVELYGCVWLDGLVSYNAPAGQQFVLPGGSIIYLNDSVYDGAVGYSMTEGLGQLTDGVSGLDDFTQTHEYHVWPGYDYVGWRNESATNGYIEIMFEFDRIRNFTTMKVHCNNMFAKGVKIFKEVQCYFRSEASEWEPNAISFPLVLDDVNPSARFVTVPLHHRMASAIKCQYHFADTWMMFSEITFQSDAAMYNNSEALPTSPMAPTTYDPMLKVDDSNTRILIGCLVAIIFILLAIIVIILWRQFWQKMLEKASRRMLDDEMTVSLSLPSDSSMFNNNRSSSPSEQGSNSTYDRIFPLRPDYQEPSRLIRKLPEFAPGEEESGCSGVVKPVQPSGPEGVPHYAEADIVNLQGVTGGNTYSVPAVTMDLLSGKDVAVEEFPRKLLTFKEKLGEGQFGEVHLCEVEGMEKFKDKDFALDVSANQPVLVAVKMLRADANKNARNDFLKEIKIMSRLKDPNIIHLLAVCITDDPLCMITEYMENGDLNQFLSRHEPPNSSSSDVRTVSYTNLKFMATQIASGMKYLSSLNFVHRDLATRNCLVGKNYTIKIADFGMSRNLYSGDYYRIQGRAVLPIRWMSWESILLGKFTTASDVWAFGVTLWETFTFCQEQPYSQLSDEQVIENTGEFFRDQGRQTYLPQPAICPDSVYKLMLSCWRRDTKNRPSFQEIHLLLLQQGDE
The description is as above. In kind it is biochemical. Particulars: 33P-ATP at Km concentration. The method, then: as §12, §13, §14, §15

For data set [9], the target named is T4, VEGFR3 (Homo sapiens, UniProt P35916).
T4 construct: purchased Reaction Biology Corp
T4 sequence (P35916 25-1363): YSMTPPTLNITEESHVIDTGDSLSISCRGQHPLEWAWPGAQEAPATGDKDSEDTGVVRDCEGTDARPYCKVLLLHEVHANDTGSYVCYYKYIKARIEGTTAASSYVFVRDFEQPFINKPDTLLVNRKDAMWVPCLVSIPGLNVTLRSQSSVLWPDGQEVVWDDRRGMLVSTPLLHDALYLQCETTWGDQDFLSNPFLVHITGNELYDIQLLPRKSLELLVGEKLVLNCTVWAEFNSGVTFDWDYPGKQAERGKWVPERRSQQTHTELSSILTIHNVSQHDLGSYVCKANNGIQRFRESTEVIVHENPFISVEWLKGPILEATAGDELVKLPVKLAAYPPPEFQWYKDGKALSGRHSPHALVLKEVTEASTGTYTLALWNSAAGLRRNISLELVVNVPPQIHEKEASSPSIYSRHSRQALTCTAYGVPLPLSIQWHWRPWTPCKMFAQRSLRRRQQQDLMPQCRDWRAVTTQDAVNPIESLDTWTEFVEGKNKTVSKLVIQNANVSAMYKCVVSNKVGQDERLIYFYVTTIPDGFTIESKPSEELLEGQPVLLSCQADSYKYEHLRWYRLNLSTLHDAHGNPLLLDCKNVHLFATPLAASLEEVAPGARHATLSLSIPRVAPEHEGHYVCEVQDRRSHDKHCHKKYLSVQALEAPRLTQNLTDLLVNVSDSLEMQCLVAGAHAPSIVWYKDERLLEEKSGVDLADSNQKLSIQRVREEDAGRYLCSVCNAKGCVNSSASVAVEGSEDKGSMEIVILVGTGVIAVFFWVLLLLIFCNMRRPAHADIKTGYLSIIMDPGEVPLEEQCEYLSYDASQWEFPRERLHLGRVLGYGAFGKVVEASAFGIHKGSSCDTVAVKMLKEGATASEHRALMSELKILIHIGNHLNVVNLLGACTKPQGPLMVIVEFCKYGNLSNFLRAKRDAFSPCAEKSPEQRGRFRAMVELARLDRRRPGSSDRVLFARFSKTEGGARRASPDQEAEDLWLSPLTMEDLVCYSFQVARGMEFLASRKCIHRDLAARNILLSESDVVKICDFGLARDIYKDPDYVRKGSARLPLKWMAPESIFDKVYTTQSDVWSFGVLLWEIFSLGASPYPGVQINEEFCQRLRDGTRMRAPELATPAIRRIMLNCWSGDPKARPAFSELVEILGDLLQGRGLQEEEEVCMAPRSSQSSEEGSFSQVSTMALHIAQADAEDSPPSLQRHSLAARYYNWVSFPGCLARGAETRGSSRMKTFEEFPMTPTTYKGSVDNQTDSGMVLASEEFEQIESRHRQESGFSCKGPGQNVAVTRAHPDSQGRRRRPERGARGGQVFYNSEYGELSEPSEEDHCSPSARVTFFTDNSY
The data set is described as above. In kind it is biochemical. Conditions: 33P-ATP at Km concentration. The method, then: as §12, §13, §14, §15

Where [10] appears, read: Human liver microsomes 0.5 mg/mL.
Where [11] appears, read: Mouse liver microsomes 0.5 mg/mL.

T1 sequence (P35968 20-1356): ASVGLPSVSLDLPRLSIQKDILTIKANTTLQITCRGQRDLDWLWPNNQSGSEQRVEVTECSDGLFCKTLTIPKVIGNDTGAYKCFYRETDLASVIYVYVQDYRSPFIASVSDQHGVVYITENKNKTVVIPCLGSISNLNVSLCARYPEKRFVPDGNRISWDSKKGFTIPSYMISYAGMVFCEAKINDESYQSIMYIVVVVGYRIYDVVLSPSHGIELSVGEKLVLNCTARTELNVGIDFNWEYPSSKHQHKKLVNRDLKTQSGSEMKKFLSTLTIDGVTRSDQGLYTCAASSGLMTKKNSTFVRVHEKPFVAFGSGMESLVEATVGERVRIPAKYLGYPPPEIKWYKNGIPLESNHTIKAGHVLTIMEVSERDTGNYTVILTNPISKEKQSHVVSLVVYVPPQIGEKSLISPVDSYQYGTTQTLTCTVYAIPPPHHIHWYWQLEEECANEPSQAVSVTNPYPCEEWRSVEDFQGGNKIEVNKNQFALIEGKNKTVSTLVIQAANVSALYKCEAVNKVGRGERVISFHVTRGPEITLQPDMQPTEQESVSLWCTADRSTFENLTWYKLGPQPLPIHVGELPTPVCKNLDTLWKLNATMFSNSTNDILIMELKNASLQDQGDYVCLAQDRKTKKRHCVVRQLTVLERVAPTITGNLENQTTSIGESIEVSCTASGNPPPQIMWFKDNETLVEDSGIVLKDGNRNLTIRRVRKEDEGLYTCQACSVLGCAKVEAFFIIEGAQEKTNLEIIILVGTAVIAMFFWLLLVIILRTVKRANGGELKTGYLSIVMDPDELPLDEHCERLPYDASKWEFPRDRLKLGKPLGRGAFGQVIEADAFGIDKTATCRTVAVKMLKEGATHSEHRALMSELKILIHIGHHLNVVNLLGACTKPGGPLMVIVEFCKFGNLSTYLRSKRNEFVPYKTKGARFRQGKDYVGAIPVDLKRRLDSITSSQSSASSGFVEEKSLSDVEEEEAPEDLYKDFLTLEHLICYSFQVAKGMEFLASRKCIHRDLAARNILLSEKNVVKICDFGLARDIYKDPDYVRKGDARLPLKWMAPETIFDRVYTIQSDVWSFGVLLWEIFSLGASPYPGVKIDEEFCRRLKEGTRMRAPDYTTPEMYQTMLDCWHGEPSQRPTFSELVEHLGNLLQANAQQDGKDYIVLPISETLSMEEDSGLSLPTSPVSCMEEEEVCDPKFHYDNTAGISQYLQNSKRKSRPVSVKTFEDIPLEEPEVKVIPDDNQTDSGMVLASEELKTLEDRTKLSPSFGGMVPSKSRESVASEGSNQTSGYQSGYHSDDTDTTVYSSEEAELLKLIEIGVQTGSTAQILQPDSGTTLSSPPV
T2 sequence (P17948 27-1338): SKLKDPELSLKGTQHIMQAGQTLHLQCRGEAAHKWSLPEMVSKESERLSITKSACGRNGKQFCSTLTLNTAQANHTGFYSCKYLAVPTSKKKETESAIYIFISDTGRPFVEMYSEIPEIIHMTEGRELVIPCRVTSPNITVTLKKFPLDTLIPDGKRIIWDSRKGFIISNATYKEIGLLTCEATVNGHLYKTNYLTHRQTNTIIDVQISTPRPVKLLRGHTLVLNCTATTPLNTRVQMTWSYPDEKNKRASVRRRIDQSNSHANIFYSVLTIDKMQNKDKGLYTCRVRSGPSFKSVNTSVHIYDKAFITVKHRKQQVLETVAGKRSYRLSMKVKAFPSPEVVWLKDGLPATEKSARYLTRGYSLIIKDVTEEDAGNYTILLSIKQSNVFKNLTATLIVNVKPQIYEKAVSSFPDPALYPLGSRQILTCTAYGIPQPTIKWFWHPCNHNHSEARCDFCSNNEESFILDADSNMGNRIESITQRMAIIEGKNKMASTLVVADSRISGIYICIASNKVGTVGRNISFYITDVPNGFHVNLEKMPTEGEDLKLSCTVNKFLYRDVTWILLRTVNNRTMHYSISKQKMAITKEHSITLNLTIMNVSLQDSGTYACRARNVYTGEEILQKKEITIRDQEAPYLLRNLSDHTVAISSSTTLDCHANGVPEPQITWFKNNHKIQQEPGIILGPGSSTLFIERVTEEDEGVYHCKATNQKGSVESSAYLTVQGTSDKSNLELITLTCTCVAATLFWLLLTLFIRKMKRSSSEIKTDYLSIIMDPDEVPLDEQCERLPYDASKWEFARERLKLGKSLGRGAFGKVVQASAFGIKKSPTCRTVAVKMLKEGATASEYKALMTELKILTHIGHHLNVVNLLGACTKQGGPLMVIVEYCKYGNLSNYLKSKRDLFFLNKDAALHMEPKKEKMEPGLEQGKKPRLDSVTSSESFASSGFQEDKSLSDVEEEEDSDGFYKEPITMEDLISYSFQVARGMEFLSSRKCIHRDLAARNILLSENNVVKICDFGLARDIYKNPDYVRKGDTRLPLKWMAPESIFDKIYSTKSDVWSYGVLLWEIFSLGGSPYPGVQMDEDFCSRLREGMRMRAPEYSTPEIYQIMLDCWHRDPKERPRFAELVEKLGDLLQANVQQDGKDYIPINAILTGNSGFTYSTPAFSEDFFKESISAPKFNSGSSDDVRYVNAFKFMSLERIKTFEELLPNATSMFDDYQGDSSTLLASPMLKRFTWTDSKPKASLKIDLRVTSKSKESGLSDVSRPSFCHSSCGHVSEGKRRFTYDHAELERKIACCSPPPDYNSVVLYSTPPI

As to `COCCNCc1ccc(-c2cc3nccc(Oc4ccc(NC(=O)C5(C(=O)Nc6ccc(F)cc6)CC5)cc4F)c3s2)nc1` [Sitravatinib, reference compound], the CLint scaled at 1 μM is 42.8 mL/min/kg in [1]; 172 mL/min/kg in [2]; 10.6 mL/min/kg in data set [3] (setting [10]); 460 mL/min/kg in data set [3] (setting [11]); 192 mL/min/kg in [4]. Further, the 60 min remaining in [1] turned out to be 38.5%; in [2], 2.6%; in data set [3] (setting [10]), 71.5%; in data set [3] (setting [11]), 3.30%; in data set [4], 4.2%. In addition, the AUC(0-t) in data set [5] turned out to be 4.79 µM·h. Also, in [5], the Cmax is 801 nM. The Tmax in data set [5] stood at 3 h.
Consider `[2H]C([2H])([2H])OCCNCc1ccc(-c2cc3nccc(Oc4ccc(NC(=O)C5(C(=O)Nc6ccc(F)cc6)CC5)cc4F)c3s2)nc1` [Trifluoroacetate of 001], for which the CLint scaled at 1 μM in [1] was 22.5 mL/min/kg; in data set [2], 144 mL/min/kg; in data set [3] (setting [10]), below 8.6 mL/min/kg; in data set [3] (setting [11]) it was 321 mL/min/kg; in data set [4], 71.3 mL/min/kg. Moreover, the 60 min remaining in [1] was determined as 55.9%; in data set [2], 4.9%; in data set [3] (setting [10]), 87.1%; in [3] (setting [11]), 9.5%; in data set [4] it was 28.6%. Besides, the IC50 in data set [6] was found to be 2.16 nM; in data set [7] it was 10.5 nM; in data set [8], 0.79 nM; in [9] it was 2.82 nM. The AUC(0-t) in data set [5] was determined as 6.65 µM·h. The peak level in data set [5] (Cmax) was 930 nM. Besides, the Tmax in data set [5] came out at 1.25 h.
With `[2H]C([2H])([2H])OC([2H])([2H])CNCc1ccc(-c2cc3nccc(Oc4ccc(NC(=O)C5(C(=O)Nc6ccc(F)cc6)CC5)cc4F)c3s2)nc1` [Hydrochloride of 002], the intrinsic metabolic clearance (CLint scaled) at 1 μM is 19.7 mL/min/kg in [1]; 139 mL/min/kg in [2]; below 8.6 mL/min/kg in data set [3] (setting [10]); 301 mL/min/kg in data set [3] (setting [11]); 78.1 mL/min/kg in data set [4]. The 60 min remaining in data set [1] amounted to 59.7%; in data set [2], 5.4%; in [3] (setting [10]), 96.4%; in data set [3] (setting [11]) it was 11.3%; in [4], 26.2%. Moreover, the IC50 in [6] stood at 2.75 nM; in data set [7], 7.16 nM; in data set [8] it was 1.14 nM; in data set [9], 2.13 nM.
